Data as given in PubChem BioAssay (NCI).
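Cultured in 96-well plates, cells were exposed to test compound for 48 hours across five concentrations. GI50 is the concentration that inhibits growth by half. Definition used: TGI = concentration required for complete inhibition of growth.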

Assays:
Assay in all cases: NCI anticancer screen, dose series, 48 h
[1] = system: 786-0 renal
[2] = system: A498 renal
[3] = system: A549 NSCLC
[4] = system: ACHN renal
[5] = system: BT-549 breast
[6] = system: CAKI-1 renal
[7] = system: CCRF-CEM leukemia
[8] = system: COLO 205 colon
[9] = system: DU-145 prostate
[10] = system: EKVX NSCLC
[11] = system: HCC-2998 colon
[12] = system: HCT-116 colon
[13] = system: HCT-15 colon
[14] = system: HL-60(TB) leukemia
[15] = system: HOP-62 NSCLC
[16] = system: HS 578T breast
[17] = system: HT29 colon
[18] = system: IGROV1 ovarian
[19] = system: K-562 leukemia
[20] = system: KM12 colon
[21] = system: LOX IMVI melanoma
[22] = system: M14 melanoma
[23] = system: MALME-3M melanoma
[24] = system: MCF7 breast
[25] = system: MDA-MB-231 breast
[26] = system: MDA-MB-435
[27] = system: MOLT-4 leukemia
[28] = system: NCI-H226 lung
[29] = system: NCI-H23 lung
[30] = system: NCI-H460 lung
[31] = system: NCI-H522 lung
[32] = system: NCI/ADR-RES ovarian
[33] = system: OVCAR-3 ovarian
[34] = system: OVCAR-4 ovarian
[35] = system: OVCAR-5 ovarian
[36] = system: OVCAR-8 ovarian
[37] = system: PC-3 prostate
[38] = system: RXF 393 renal
[39] = system: SF-268 CNS
[40] = system: SF-295 CNS
[41] = system: SF-539 CNS
[42] = system: SK-MEL-2 melanoma
[43] = system: SK-MEL-28 melanoma
[44] = system: SK-MEL-5 melanoma
[45] = system: SK-OV-3 ovarian
[46] = system: SN12C renal
[47] = system: SNB-19 CNS
[48] = system: SNB-75 CNS
[49] = system: SR leukemia
[50] = system: SW-620 colon
[51] = system: T-47D breast
[52] = system: TK-10 renal
[53] = system: U251 CNS
[54] = system: UACC-257 melanoma
[55] = system: UACC-62 melanoma
[56] = system: UO-31 renal

`CC1(C)N=C(N)N=C(N)N1c1cccc(CC(=O)Nc2ccccc2)c1` was tested. Which GI50 [1] did it give?
The GI50 was 78.5 µM.

And the TGI [1]?
Its TGI is > 100 µM.

What about the GI50 [2] of the same compound?
The GI50 was 22.8 µM.

What about the TGI [2] of the same compound?
The TGI was > 100 µM.

What about the GI50 [3] of the same compound?
The GI50 was 3.54 µM.

And the TGI [3]?
Its TGI is > 100 µM.

What about the GI50 [4] of the same compound?
The GI50 was > 100 µM.

What about the TGI [4] of the same compound?
Its TGI is > 100 µM.

What about the GI50 [5] of the same compound?
Its GI50 is 45.1 µM.

And the TGI [5]?
Its TGI is > 100 µM.

What about the GI50 [6] of the same compound?
The GI50 was > 100 µM.

What about the TGI [6] of the same compound?
Its TGI is > 100 µM.

What about the GI50 [7] of the same compound?
The GI50 was 18.2 µM.

And the TGI [7]?
The TGI was > 100 µM.

What about the GI50 [8] of the same compound?
Its GI50 is 47.3 µM.

What about the TGI [8] of the same compound?
The TGI was > 100 µM.

And the GI50 [9]?
The GI50 was 12.7 µM.

And the TGI [9]?
The TGI was > 100 µM.

What about the GI50 [10] of the same compound?
The GI50 was > 100 µM.

And the TGI [10]?
Its TGI is > 100 µM.

What about the GI50 [11] of the same compound?
Its GI50 is 24 µM.

What about the TGI [11] of the same compound?
The TGI was > 100 µM.

What about the GI50 [12] of the same compound?
Its GI50 is 4.28 µM.

And the TGI [12]?
The TGI was > 100 µM.

And the GI50 [13]?
Its GI50 is > 100 µM.

What about the TGI [13] of the same compound?
The TGI was > 100 µM.

And the GI50 [14]?
The GI50 was 6 µM.

And the TGI [14]?
The TGI was > 100 µM.

And the GI50 [15]?
Its GI50 is 53.4 µM.

And the TGI [15]?
The TGI was > 100 µM.

And the GI50 [16]?
Its GI50 is 11.5 µM.

And the TGI [16]?
Its TGI is 73.2 µM.

What about the GI50 [17] of the same compound?
The GI50 was 2.35 µM.

What about the TGI [17] of the same compound?
Its TGI is > 100 µM.

What about the GI50 [18] of the same compound?
The GI50 was 8.48 µM.

And the TGI [18]?
The TGI was > 100 µM.

And the GI50 [19]?
Its GI50 is 2.87 µM.

And the TGI [19]?
The TGI was > 100 µM.

What about the GI50 [20] of the same compound?
Its GI50 is 15.1 µM.

And the TGI [20]?
Its TGI is > 100 µM.

And the GI50 [21]?
The GI50 was 4.41 µM.

What about the TGI [21] of the same compound?
The TGI was > 100 µM.

What about the GI50 [22] of the same compound?
The GI50 was 40.2 µM.

What about the TGI [22] of the same compound?
The TGI was > 100 µM.

And the GI50 [23]?
The GI50 was 58.6 µM.

What about the TGI [23] of the same compound?
The TGI was > 100 µM.

And the GI50 [24]?
Its GI50 is 7.56 µM.

And the TGI [24]?
The TGI was > 100 µM.

And the GI50 [25]?
The GI50 was > 100 µM.

What about the TGI [25] of the same compound?
The TGI was > 100 µM.

And the GI50 [26]?
Its GI50 is 4.38 µM.

And the TGI [26]?
The TGI was > 100 µM.

What about the GI50 [27] of the same compound?
Its GI50 is 25.2 µM.

What about the TGI [27] of the same compound?
The TGI was > 100 µM.

What about the GI50 [28] of the same compound?
Its GI50 is > 100 µM.

And the TGI [28]?
Its TGI is > 100 µM.

What about the GI50 [29] of the same compound?
The GI50 was 14.8 µM.

And the TGI [29]?
The TGI was > 100 µM.

And the GI50 [30]?
Its GI50 is 3.63 µM.

What about the TGI [30] of the same compound?
The TGI was > 100 µM.

What about the GI50 [31] of the same compound?
The GI50 was 47.5 µM.

What about the TGI [31] of the same compound?
The TGI was > 100 µM.

What about the GI50 [32] of the same compound?
Its GI50 is > 100 µM.

What about the TGI [32] of the same compound?
Its TGI is > 100 µM.

And the GI50 [33]?
Its GI50 is 32.1 µM.

And the TGI [33]?
The TGI was > 100 µM.

What about the GI50 [34] of the same compound?
Its GI50 is 81.8 µM.

And the TGI [34]?
The TGI was > 100 µM.

And the GI50 [35]?
The GI50 was > 100 µM.

And the TGI [35]?
The TGI was > 100 µM.

And the GI50 [36]?
Its GI50 is 76.8 µM.

What about the TGI [36] of the same compound?
Its TGI is > 100 µM.

What about the GI50 [37] of the same compound?
Its GI50 is 0.895 µM.

What about the TGI [37] of the same compound?
The TGI was > 100 µM.

And the GI50 [38]?
Its GI50 is > 100 µM.

What about the TGI [38] of the same compound?
Its TGI is > 100 µM.

And the GI50 [39]?
Its GI50 is 1.35 µM.

And the TGI [39]?
The TGI was > 100 µM.

And the GI50 [40]?
The GI50 was 30.6 µM.

What about the TGI [40] of the same compound?
The TGI was > 100 µM.

And the GI50 [41]?
The GI50 was 10.5 µM.

And the TGI [41]?
The TGI was > 100 µM.

What about the GI50 [42] of the same compound?
The GI50 was > 100 µM.

And the TGI [42]?
The TGI was > 100 µM.

And the GI50 [43]?
Its GI50 is 9.15 µM.

And the TGI [43]?
Its TGI is 77 µM.

What about the GI50 [44] of the same compound?
The GI50 was 4.44 µM.

What about the TGI [44] of the same compound?
Its TGI is > 100 µM.

What about the GI50 [45] of the same compound?
The GI50 was > 100 µM.

And the TGI [45]?
Its TGI is > 100 µM.

And the GI50 [46]?
The GI50 was 4.84 µM.

And the TGI [46]?
Its TGI is > 100 µM.

What about the GI50 [47] of the same compound?
Its GI50 is 39.7 µM.

What about the TGI [47] of the same compound?
The TGI was > 100 µM.

And the GI50 [48]?
Its GI50 is 15.4 µM.

What about the TGI [48] of the same compound?
The TGI was > 100 µM.

What about the GI50 [49] of the same compound?
Its GI50 is 2.53 µM.

What about the TGI [49] of the same compound?
Its TGI is > 100 µM.

What about the GI50 [50] of the same compound?
The GI50 was 4.56 µM.

And the TGI [50]?
Its TGI is > 100 µM.

What about the GI50 [51] of the same compound?
Its GI50 is > 100 µM.

What about the TGI [51] of the same compound?
Its TGI is > 100 µM.

And the GI50 [52]?
Its GI50 is > 100 µM.

What about the TGI [52] of the same compound?
The TGI was > 100 µM.

And the GI50 [53]?
Its GI50 is 4.96 µM.

What about the TGI [53] of the same compound?
The TGI was > 100 µM.

And the GI50 [54]?
The GI50 was > 100 µM.

What about the TGI [54] of the same compound?
The TGI was > 100 µM.

And the GI50 [55]?
The GI50 was 8.3 µM.

And the TGI [55]?
Its TGI is > 100 µM.

What about the GI50 [56] of the same compound?
The GI50 was > 100 µM.

What about the TGI [56] of the same compound?
The TGI was > 100 µM.
